{
  "source": "patent US12613249B2",
  "about": "(THE ROYAL INSTITUTION FOR THE ADVANCEMENT OF LEARNING / …, priority 2019, dated 2026)",
  "key": {"[1]": {"test_system": "metalloproteases", "test": "Metalloprotease inhibition in APP-overexpressing SH-SY5Y cells, 4-plex MSD", "assay_type": "cell-based, human", "details": "supernatant", "source_text": "(§1) Using the ELISA Conversion Kit from Meso Scale Discovery (MSD, USA), an electrochemiluminescence-based assay was developed (neo-epitope specific Aβ34 and the sulfo-tagged 6E10 (binds to the N-terminus of human Aβ) or the sulfo-tagged 4G8 for murine samples (binds to the mid domain of Aβ)). High-bind or custom-printed 4-plex plates (using the mab34, 4G8 (Biolegend) for pan-Aβ assay, G2−10 for 1-plex Aβ40 assay, and MSD's validated mouse monoclonal anti-Aβ38, anti-Aβ40, as well as anti-Aβ42 antibodies, see MSD Aβ peptide V-PLEX) were blocked (MSD 5% Blocker A in PBS) for 1 h at 22° C. and washed three times with PBS-T for 1 min. at 22° C., loaded with SULFO-TAG™ 6E10 or 4G8 detection antibody (diluted to 1× in MSD Diluent 100) and sample or peptide calibrator (in MSD Diluent 35 or cell culture medium), and incubated for 16 h at 4° C. with shaking at 600 rpm. After three washing steps with PBS-T for 1 min. at 22° C., 150 μL 2×MSD read buffer were added per well. All plates were read using a MSD QuickPlex SQ 120 Imager and data analyzed using MSD Workbench® software. Standard curves were fitted using a non-linear four-parameter logistic fit with 1/y^2 weighting. The equation is: […]"}, "[2]": {"test_system": "metalloproteases", "test": "Metalloprotease inhibition in BACE1-overexpressing SH-SY5Y cells, 4-plex MSD", "assay_type": "cell-based, human", "details": "supernatant", "source_text": "as §1"}, "[3]": {"test": "mouse plasma", "details": "C57BL/6 male and female mice, 37° C., up to 24 h"}, "[4]": {"test": "Ex-vivo stability in mouse whole blood, MALDI-TOF MS", "assay_type": "in vitro ADME", "details": "both sexes, C57BL/6, 24 h incubation, read-out: decrease of signal", "experimental": "(§2) The stability of D-AIP in mouse plasma, blood and liver S-9 fraction was investigated to ascertain the metabolic resistance towards proteases and enzymatic activities in these matrices. Whole mouse blood obtained from healthy C57BL/6 male and female mice (6 mice in total) were collected in lithium heparin containing tubes, pooled and stored at 4° C. prior to its use. A fraction of the pooled blood was immediately centrifuged at 1500×g for 10 min at 4° C. to obtain the plasma. The whole blood and plasma samples were spiked with PBS (as control) or AIP (L-AIP, D-AIP or sD-AIP respectively) to make a final concentration of 1 ug/mL and incubated at 37° C. Initial samples were withdrawn to represent t=0 prior to incubation and others were withdrawn 1, 3 and 24 h respectively. Fresh mouse liver also obtained from C57BL/6 male and female mice were pooled, homogenized in 0.15 M Potassium chloride (KCl) and centrifuged at 9000×g. The supernatant represents liver homogenate (S-9) fraction which was mixed with other buffers to formulate the liver S-9 mix as previously described (Kolrep et al., 2017, Toxicol In Vitro, 42:161-170). Liver S-9 mix were spiked with AIP to make a final concentration of 1 μg/mL (L-AIP, D-AIP or sD-AIP respectively) and incubated at 37° C. Just after the addition of NADPH, 100 μL aliquot which represents t=0 samples were withdrawn and others were sampled accordingly at predetermined time points. 400 μL of ice cold MeOH was added to the spiked plasma, blood or liver S-9 fraction respectively, to precipitate the microsomal protein. The samples were then vigorously mixed for 30 s to facilitate extraction and centrifuged for 10 minutes at 13000 rpm, the supernatant was subjected to sample clean up by C18 ZipTip (EMD Millipore Corporation), the eluates were spotted with CHCA matrix on the ground steel MALDI-TOF target and analyzed with MALDI-TOF MS. Applying the t=0 peak area as 100% the intensities of the other time points were compared relatively for interpretation. […]"}, "[5]": {"test": "Ex-vivo stability in mouse liver S9-fraction, MALDI-TOF MS", "assay_type": "in vitro ADME, C57BL/6 mice", "details": "mouse liver S-9 fraction, after 24 h", "experimental": "as §2"}},
  "note": "Square brackets hold non-standard residues; d marks the D form. Peptide text beside a SMILES is read from it.",
  "data": [
    {"compound": "CC(C)C[C@H](NP(=O)(O)O[C@@H]1O[C@@H](C)[C@H](O)[C@@H](O)[C@H]1O)C(=O)N[C@@H](Cc1c[nH]c2ccccc12)C(=O)O", "note": "[PA, phosphoramidon]", "values": [
      {"measurement": "increase of Aβ34", "setting": "[1]", "result": "approximately 9 fold"},
      {"measurement": "increase of Aβ38, Aβ40, and Aβ42", "setting": "[1]", "result": "2-3 fold"},
      {"measurement": "Aβ38, Aβ40, and Aβ42 levels", "setting": "[2]", "result": "not significantly changed"},
      {"measurement": "increase of Aβ34", "setting": "[2]", "result": "about 2.5 fold"}
    ]},
    {"compound": "D-amino acids of RGTFEGKF (H-[dR]G[dT][dF][dE]G[dK][dF]-OH; N-terminus and C-terminus assumed; SMILES C[C@H](O)[C@@H](NC(=O)CNC(=O)[C@H](N)CCCNC(=N)N)C(=O)N[C@H](Cc1ccccc1)C(=O)N[C@H](CCC(=O)O)C(=O)NCC(=O)N[C@H](CCCCN)C(=O)N[C@H](Cc1ccccc1)C(=O)O)", "values": [
      {"measurement": "not cleaved", "setting": "[3]", "result": "relatively stable over 24 h in mouse plasma"}
    ]},
    {"compound": "C[C@H](O)[C@@H](NC(=O)[C@@H](Cc1ccccc1)NC(=O)[C@@H](CCCCN)NC(=O)[C@@H](CCCNC(=N)N)NC(=O)[C@@H](Cc1ccccc1)NC(=O)[C@H](N)CCC(=O)O)C(=O)NCC(=O)NCC(=O)O", "note": "[sD-AIP, reference compound] (H-[dE][dF][dR][dK][dF][dT]GG-OH; N-terminus and C-terminus assumed)", "values": [
      {"measurement": "metabolised at 24 h, 1 ug/mL", "setting": "[4]", "result": "~50", "unit": "%"},
      {"measurement": "signal intensity compared to the unincubated sample", "setting": "[5]", "result": "four-fold reduced intensity"}
    ]}
  ]
}
